The structures appear in SMILES notation. Where only a bound is given, the exact number is not on record here.

The target of the assay is DNA-PK (Homo sapiens, UniProt P78527). Nature of the assay: DNA-PK inhibition assay (radiometric 33P-ATP kinase assay). It is filed as biochemical. The following applies: 100 μM ATP; competitive tight-binding fit. How it is done: Compounds were screened for their ability to inhibit DNA-PK kinase using a standard radiometric assay. Briefly, in this kinase assay the transfer of the terminal ^33P-phosphate in ^33P-ATP to a peptide substrate is interrogated. The assay was carried out in 384-well plates to a final volume of 50 μL per well containing approximately 6 nM DNA-PK, 50 mM HEPES (pH 7.5), 10 mM MgCl2, 25 mM NaCl, 0.01% BSA, 1 mM DTT, 10 μg/mL sheared double-stranded DNA (obtained from Sigma), 0.8 mg/mL DNA-PK peptide ([…] obtained from American Peptide), and 100 μM ATP. Accordingly, compounds of the invention were dissolved in DMSO to make 10 mM initial stock solutions. Serial dilutions in DMSO were then made to obtain the final solutions for the assay. A 0.75 μL aliquot of DMSO or inhibitor in DMSO was added to each well, followed by the addition of ATP substrate solution containing ^33P-ATP (obtained from Perkin Elmer). The reaction was started by the addition of DNA-PK, peptide and ds-DNA. After 45 min. the reaction was quenched with 25 μL of 5% phosphoric acid. The reaction mixture was transferred to MultiScreen HTS 384-well PH plates (obtained from Millipore), allowed to bind for one hour, and washed three times with 1% phosphoric acid. Following the addition of 50 μL of Ultima Gold™ high efficiency scintillant (obtained from Perkin Elmer), the samples were counted in a Packard TopCount NXT Microplate Scintillation and Luminescence Counter (Packard BioScience). The Ki values were calculated using Microsoft Excel Solver macros to fit the data to the kinetic model for competitive tight-binding inhibition.
A word on the Ki: it is the dissociation constant of the complex between target and ligand, obtained from inhibition or displacement. Low values mean a stronger hold on the target, high ones a looser hold on the target. In the case of `CNC(=O)c1ccnc2c([C@H](C)CNc3cc(-c4ccc(NC5CCN(CC(F)(F)F)CC5)nc4)ncn3)cccc12` [Compound 1085], the inhibition constant (Ki) was less than 30 nM.
Turning to `CNC(=O)c1c(F)cnc2c([C@H](C)CNc3cc(-c4ccc(NC5CCN(CC(F)(F)F)CC5)nc4)ncn3)cccc12` [Compound 1086], the Ki was less than 30 nM.
In the case of `CNC(=O)c1c(F)cnc2c([C@H](C)CNc3cc(-c4ccc(N(C)C5CCN(C)CC5)nc4)ncn3)cccc12` [Compound 1087] it was less than 30 nM.
In the case of `CNC(=O)c1ccnc2c([C@H](C)CNc3cc(-c4ccc(N(C)C5CCN(C(C)=O)CC5)nc4)ncn3)cccc12` [Compound 1088] it was less than 30 nM; in that of `CNC(=O)c1c(F)cnc2c([C@H](C)CNc3cc(-c4ccc(N(C)C5CCN(CC(F)F)CC5)nc4)ncn3)cccc12` [Compound 1089], less than 30 nM.
`CNC(=O)c1c(F)cnc2c([C@H](C)CNc3cc(-c4ccc(N(C)C5CCN(CC(F)(F)F)CC5)nc4)ncn3)cccc12` [Compound 1090] returned a Ki of less than 30 nM.
